Assay results taken from patent EP0084730A1, “Esters of penicillin derivatives with beta-lactamase inhibitors, their preparation and their use” (BEECHAM GROUP PLC, priority 1982, dated 1983).
Blank lines part the entries; values can stand above or below the compound they belong to.

Experiments:
[1] = Blood levels of the clavulanate after oral dosing in mice, determined by β-lactamase inhibition assay; assay type: in vivo; conditions: mouse
Text: These compounds were adminstered in 10% dimethylformamide/90% olive oil. […]
(§1) An antibacterial assay was used to determine levels of benzyl penicillin in blood samples. A P-lactamase inhibition assay was employed to determine levels of the clavulanate in the samples.

[2] = Blood levels of benzyl penicillin after oral dosing in mice, determined by antibacterial assay; conditions: mouse, in vivo, 60 mg/kg
Description: […] These compounds were adminstered in 10% dimethylformamide/90% olive oil. The dose was equivalent to approximately 62 mg/kg of benzyl penicillin and 38 mg/kg of the clavulanate.
as §1

- concentration at 0.25 h ([1]; in vivo, 20 mg/kg): 7500 ng/mL
- concentration at 0.5 h ([1]; in vivo, 20 mg/kg): 3850 ng/mL
- concentration at 1 h ([1]; in vivo, 20 mg/kg): 1500 ng/mL
- concentration at 2 h ([1]; in vivo, 20 mg/kg): 200 ng/mL
- Blood levels of clavulanic acid methyl ether ([1]; in vivo, 20 mg/kg, 1.5 h): 450 ng/mL
SMILES: COC/C=C1\O[C@@H]2CC(=O)N2[C@H]1C(=O)O [Clavulanic acid methyl ether]

SMILES: CC1(C)S[C@@H]2[C@H](NC(=O)Cc3ccccc3)C(=O)N2[C@H]1C(=O)O [benzyl penicillin]
- concentration at 0.25 h [2]: 1390 ng/mL
- concentration at 0.5 h [2]: 1050 ng/mL
- concentration at 0.75 h [2]: 1250 ng/mL
- concentration at 1 h [2]: 620 ng/mL
- concentration at 1.5 h [2]: 550 ng/mL
- concentration at 2 h [2]: 320 ng/mL
- Blood levels of benzyl penicillin ([2]; 0.25 h): 1390 ng/mL
- Blood levels of benzyl penicillin ([2]; 0.5 h): 1050 ng/mL
- Blood levels of benzyl penicillin ([2]; 0.75 h): 1250 ng/mL
- Blood levels of benzyl penicillin ([2]; 1 h): 620 ng/mL
- Blood levels of benzyl penicillin ([2]; 1.5 h): 550 ng/mL
- Blood levels of benzyl penicillin ([2]; 2 h): 320 ng/mL

SMILES: O=C(O)[C@H]1/C(=C/CO)O[C@@H]2CC(=O)N21 [clavulanic acid]
- concentration at 0.25 h ([1]; blood, mice, clavulanic acid alone at 20 mg/kg, 15' after administration, mean results from several experiments, read-out: Blood levels of clavulanic acid): 5900 ng/mL
- concentration at 0.5 h ([1]; blood, mice, clavulanic acid alone at 20 mg/kg, 30' after administration, mean results from several experiments, read-out: Blood levels of clavulanic acid): 2300 ng/mL
- concentration at 0.75 h ([1]; blood, mice, clavulanic acid alone at 20 mg/kg, 45' after administration, mean results from several experiments): 1040 ng/mL
- concentration at 1 h ([1]; blood, mice, clavulanic acid alone at 20 mg/kg, 60' after administration, mean results from several experiments, read-out: Blood levels of clavulanic acid): 530 ng/mL
- concentration at 1.5 h ([1]; blood, mice, clavulanic acid alone at 20 mg/kg, 90' after administration, mean results from several experiments): 340 ng/mL
- concentration at 2 h ([1]; blood, mice, clavulanic acid alone at 20 mg/kg, 120' after administration, mean results from several experiments, read-out: Blood levels of clavulanic acid): ≤ 300 ng/mL
